{"source": "patent US20210212996A1", "about": "“METHODS OF TREATING NEURODEGENERATIVE DISEASES USING INDANE ACETIC ACID DERIVATIVES WHICH PENETRATE THE BLOOD BRAIN BARRIER” (DARA BioSciences, Inc., priority 2009, published 2021)", "key": {"[1]": {"assay": "Rat brain penetrance pharmacokinetics, brain to plasma ratio after oral dosing", "type": "in vivo, male Sprague-Dawley rats", "conditions": "for concentration at 7 h: time point 7.0, individual rats", "excerpt": "Blood brain penetration studies can be carried out as described in recent publications and as is known by those skilled in the art. (See: Chang, K. L., et al. Influence of drug transporters and stereoselectivity on the brain penetration of pioglitazone as a potential medicine against Alzheimer's disease. Science Reports 2014, 5, 9000). In brief, A good measure of whether a small molecule penetrates the BBB and is not rapidly transported out, is the brain to plasma ratio of the drug. This is measured in pre-clinical animal models by determining plasma concentration vs time curves as in a standard pharmacokinetic study, and in addition harvesting brains and determining whole brain concentrations over time. The brain to plasma concentration ratio can them be determined at any time point, such as the […], or for the entire time curve (AUC, area under the curve). Clinically, FDG-PET can be used as a measure of the pharmacological effect of T3D-959, and an indirect measure of brain levels of drug.\nFor compounds of the present invention to be effective in treating neurotoxicity or neurodegeneration, it must have an ability to cross the BBB and penetrate the brain. […] The plasma exposure as measured by AUClast was 9569±1190 hr*ng/mL."}, "[2]": {"tested_on": "Relative Cerebral Metabolic Rate for glucose", "assay": "FDG-PET clinical study, two week treatment", "type": "in vivo, human", "excerpt": "The majority were non-Hispanic and of white origin."}, "human PPARα": {"molecular_target": "T1, human PPARα (Homo sapiens, UniProt Q07869)", "T1 construct": "expressed in transfected cells; host or cells: CV-1 cells (transient transfection)", "T1 sequence (Q07869 1-468)": "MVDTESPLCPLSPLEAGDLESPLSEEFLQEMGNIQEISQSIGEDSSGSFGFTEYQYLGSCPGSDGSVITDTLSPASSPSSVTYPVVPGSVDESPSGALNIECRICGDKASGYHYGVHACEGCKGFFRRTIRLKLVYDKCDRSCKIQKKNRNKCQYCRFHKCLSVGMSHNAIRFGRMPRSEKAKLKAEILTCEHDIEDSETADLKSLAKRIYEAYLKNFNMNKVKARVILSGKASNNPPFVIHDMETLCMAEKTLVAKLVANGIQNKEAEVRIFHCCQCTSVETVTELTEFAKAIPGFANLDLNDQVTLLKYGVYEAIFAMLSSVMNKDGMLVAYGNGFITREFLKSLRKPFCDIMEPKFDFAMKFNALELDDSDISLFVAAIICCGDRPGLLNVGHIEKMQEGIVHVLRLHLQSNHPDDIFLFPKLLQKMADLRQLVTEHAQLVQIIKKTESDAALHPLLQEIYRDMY", "assay": "Human PPAR activation in transient transfection study, transfected CV-1 cells (alpha subtype)", "type": "cell-based", "excerpt": "(§1) The table summarize the results of studies performed in transfected CV-1 cells with three different lots of Compound of Example 11. […]."}, "human PPARδ": {"molecular_target": "T2, human PPARδ (Homo sapiens, UniProt Q03181)", "T2 construct": "expressed in transfected cells; host or cells: CV-1 cells (transient transfection)", "T2 sequence (Q03181 1-441)": "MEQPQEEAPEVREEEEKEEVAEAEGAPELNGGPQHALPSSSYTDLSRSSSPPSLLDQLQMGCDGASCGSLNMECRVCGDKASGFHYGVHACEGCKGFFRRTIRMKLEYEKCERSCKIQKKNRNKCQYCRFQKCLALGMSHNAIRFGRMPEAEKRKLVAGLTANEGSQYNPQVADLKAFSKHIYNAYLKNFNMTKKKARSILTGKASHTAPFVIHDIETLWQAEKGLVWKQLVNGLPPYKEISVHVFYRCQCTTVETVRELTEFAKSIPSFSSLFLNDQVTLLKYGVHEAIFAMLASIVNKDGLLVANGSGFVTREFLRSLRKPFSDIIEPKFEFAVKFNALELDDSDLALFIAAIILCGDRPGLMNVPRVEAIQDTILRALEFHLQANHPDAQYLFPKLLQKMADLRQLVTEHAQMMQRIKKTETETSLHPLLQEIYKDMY", "assay": "Human PPAR activation in transient transfection study, transfected CV-1 cells (delta subtype)", "type": "cell-based"}, "human Caco-2": {"tested_on": "human Caco-2", "assay": "Caco-2 permeability with and without P-gp inhibitor verapamil", "conditions": "Caco-2 with/without verapamil"}, "[3]": {"assay": "Caco-2 permeability with and without P-gp inhibitor verapamil", "conditions": "human, Caco-2"}, "human PPARγ": {"molecular_target": "T3, human PPARγ (Homo sapiens, UniProt P37231)", "T3 construct": "expressed in transfected cells; host or cells: CV-1 cells (transient transfection)", "T3 sequence (P37231 1-505)": "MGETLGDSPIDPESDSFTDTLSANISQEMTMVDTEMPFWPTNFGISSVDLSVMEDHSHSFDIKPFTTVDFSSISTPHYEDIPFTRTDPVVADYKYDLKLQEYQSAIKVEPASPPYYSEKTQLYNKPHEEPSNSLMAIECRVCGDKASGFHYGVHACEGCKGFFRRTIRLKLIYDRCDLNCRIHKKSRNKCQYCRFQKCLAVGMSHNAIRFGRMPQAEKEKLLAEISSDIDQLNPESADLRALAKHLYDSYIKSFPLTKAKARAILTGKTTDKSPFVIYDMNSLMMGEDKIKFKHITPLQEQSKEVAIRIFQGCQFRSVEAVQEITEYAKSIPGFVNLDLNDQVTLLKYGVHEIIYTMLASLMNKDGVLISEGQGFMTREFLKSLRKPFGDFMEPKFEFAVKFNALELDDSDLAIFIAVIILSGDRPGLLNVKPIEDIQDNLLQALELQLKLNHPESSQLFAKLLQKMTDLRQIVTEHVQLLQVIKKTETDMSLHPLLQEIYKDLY", "assay": "Human PPAR activation in transient transfection study, transfected CV-1 cells (gamma subtype)", "type": "cell-based", "excerpt": "as §1"}}, "note": "Like-named read-outs stand apart in the source and are kept apart here.", "data": [{"compound": "CCc1oc(-c2ccc(OC)cc2)nc1CCOc1ccc2c(c1)CC[C@H]2CC(=O)[O-].[Na+]", "note": "[Example 11, Sodium (S)-2-(5-(2-(5-ethyl-2-(4-methoxyphenyl)oxazol-4-yl)ethoxy)-2,3-dihydro-1H-inden-1-yl)acetate]", "values": [{"measurement": "time plasma Cmax reached post dose", "setting": "[1]; 3 mg/kg oral", "result": 5, "unit": "h"}, {"measurement": "concentration at 7 h", "setting": "[1]; male, Sprague-Dawley, rat, brain, oral, 3 mg/kg, read-out: Brain Tissue Cone.", "result": 130, "unit": "ng/g"}, {"measurement": "Kp at 3 h", "setting": "[1]; male, Sprague-Dawley, rat, in vivo, 3 mg/kg, time point 3.0, individual rats, read-out: B/P Ratio", "result": 0.19}, {"measurement": "concentration at 3 h", "setting": "[1]; male, Sprague-Dawley, rat, in vivo, 3 mg/kg, time point 3.0, individual rats, read-out: Brain Tissue Cone.", "result": 274, "unit": "ng/g"}, {"measurement": "concentration at 3 h", "setting": "[1]; male, Sprague-Dawley, rat, in vivo, 3 mg/kg, time point 3.0, individual rats, read-out: Plasma Conc.", "result": 1430, "unit": "ng/mL"}, {"measurement": "Kp at 5 h", "setting": "[1]; male, Sprague-Dawley, rat, in vivo, 3 mg/kg, time point 5.0, individual rats, read-out: B/P Ratio", "result": 0.17}, {"measurement": "concentration at 5 h", "setting": "[1]; male, Sprague-Dawley, rat, in vivo, 3 mg/kg, time point 5.0, individual rats, read-out: Brain Tissue Cone.", "result": 208, "unit": "ng/g"}, {"measurement": "concentration at 5 h", "setting": "[1]; male, Sprague-Dawley, rat, in vivo, 3 mg/kg, time point 5.0, individual rats, read-out: Plasma Conc.", "result": 1260, "unit": "ng/mL"}, {"measurement": "concentration at 7 h", "setting": "[1]; male, Sprague-Dawley, rat, in vivo, 3 mg/kg, read-out: Brain Tissue Cone.", "result": 203, "unit": "ng/g"}, {"measurement": "Kp at 12 h", "setting": "[1]; male, Sprague-Dawley, rat, in vivo, 3 mg/kg, time point 12.0, individual rats, read-out: B/P Ratio", "result": 0.3}, {"measurement": "concentration at 12 h", "setting": "[1]; male, Sprague-Dawley, rat, in vivo, 3 mg/kg, time point 12.0, individual rats, read-out: Brain Tissue Cone.", "result": 104, "unit": "ng/g"}, {"measurement": "concentration at 12 h", "setting": "[1]; male, Sprague-Dawley, rat, in vivo, 3 mg/kg, time point 12.0, individual rats, read-out: Plasma Conc.", "result": 345, "unit": "ng/mL"}, {"measurement": "Kp at 1 h", "setting": "[1]; male, Sprague-Dawley, rat, in vivo, po, 3 mg/kg, 1 hour, 3 mg/kg oral", "result": "0.361 ± 0.142"}, {"measurement": "Kp at 3 h", "setting": "[1]; male, Sprague-Dawley, rat, in vivo, po, 3 mg/kg, 3 hours, 3 mg/kg oral, read-out: Brain/Plasma ratio", "result": "0.22 ± 0.033"}, {"measurement": "Kp at 5 h", "setting": "[1]; male, Sprague-Dawley, rat, in vivo, po, 3 mg/kg, 5 hours, 3 mg/kg oral, read-out: Brain/Plasma ratio", "result": "0.171 ± 0.011"}, {"measurement": "Kp at 7 h", "setting": "[1]; male, Sprague-Dawley, rat, in vivo, po, 3 mg/kg, 7 hours, 3 mg/kg oral", "result": "0.328 ± 0.154"}, {"measurement": "Kp at 12 h", "setting": "[1]; male, Sprague-Dawley, rat, in vivo, po, 3 mg/kg, 12 hours, 3 mg/kg oral, read-out: Brain/Plasma ratio", "result": "0.35 ± 0.077"}, {"measurement": "half-life", "setting": "[1]; male, Sprague-Dawley, rat, in vivo, 3 mg/kg oral", "result": 200, "unit": "min"}, {"measurement": "Cmax", "setting": "[1]; male, Sprague-Dawley, rat, in vivo, 3 mg/kg oral, normal saline", "result": "1550 ± 248", "unit": "ng/mL"}, {"measurement": "AUC(0-t)", "setting": "[1]; male, Sprague-Dawley, rat, in vivo, 3 mg/kg oral, read-out: plasma exposure AUClast", "result": "9570 ± 1190", "unit": "ng·h/mL"}, {"measurement": "concentration at 3 h", "setting": "[1]; male, Sprague-Dawley, rat, plasma, oral, 3 mg/kg, time point 3.0, individual rats, read-out: Plasma Conc.", "result": 910, "unit": "ng/mL"}, {"measurement": "number of voxels with statistically significant differences from baseline to end of treatment (ROSDs)", "setting": "[2]; 10 mg", "result": 70, "unit": "voxels"}, {"measurement": "penetration of the Blood Brain Barrier (FDG-PET, voxel-wise analysis)", "setting": "[2]; clinical, 3 to 90 mg", "result": "penetrates the Blood Brain Barrier (BBB) even at the lowest 3 mg"}, {"measurement": "dose dependence of the effect on FDG-PET outcomes", "setting": "[2]; sROI, anatomical ROI and voxel-wise SPM analyses", "result": "dose-dependent, with larger effects observed at larger doses"}, {"measurement": "EC50", "setting": "human PPARα; Lot A, Non GMP, read-out: EC50 PPARα", "result": 488, "unit": "nM"}, {"measurement": "EC50", "setting": "human PPARα; Lot B, GLP Nonclinical Studies, read-out: EC50 PPARα", "result": 750, "unit": "nM"}, {"measurement": "EC50", "setting": "human PPARα; Lot C, cGMP material, read-out: EC50 PPARα", "result": 360, "unit": "nM"}, {"measurement": "selectivity over the human PPAR alpha subtype", "setting": "human PPARα; PPARδ vs PPARα", "result": "~30", "unit": "fold"}, {"measurement": "EC50", "setting": "human PPARα; average of three lots, read-out: Average EC50 PPARα", "result": 530, "unit": "nM"}, {"measurement": "EC50", "setting": "human PPARδ; Lot A, Non GMP, read-out: EC50 PPARδ", "result": 15, "unit": "nM"}, {"measurement": "EC50", "setting": "human PPARδ; Lot B, GLP Nonclinical Studies, read-out: EC50 PPARδ", "result": 27, "unit": "nM"}, {"measurement": "EC50", "setting": "human PPARδ; Lot C, cGMP material, read-out: EC50 PPARδ", "result": 16, "unit": "nM"}, {"measurement": "EC50", "setting": "human PPARδ; average of three lots, read-out: Average EC50 PPARδ", "result": 19, "unit": "nM"}, {"measurement": "P-gp substrate", "setting": "human Caco-2", "result": "not a substrate for P-gp"}, {"measurement": "Papp", "setting": "[3]", "result": 114, "unit": "×10⁻⁶ cm/s"}, {"measurement": "EC50", "setting": "human PPARγ; Lot A, Non GMP, read-out: EC50 PPARγ", "result": 220, "unit": "nM"}, {"measurement": "EC50", "setting": "human PPARγ; Lot B, GLP Nonclinical Studies, read-out: EC50 PPARγ", "result": 270, "unit": "nM"}, {"measurement": "EC50", "setting": "human PPARγ; Lot C, cGMP material, read-out: EC50 PPARγ", "result": 400, "unit": "nM"}, {"measurement": "EC50", "setting": "human PPARγ; average of three lots, read-out: Average EC50 PPARγ", "result": 297, "unit": "nM"}]}]}
